Data set [1] deals with Plasmodium falciparum. The experiment in a line: Antiplasmodial activity against Plasmodium falciparum 3D7 assessed as reduction in parasite viability by parasite lactate dehydrogenase assay. The class given is functional, organism-based.
Data set [2] deals with Trypanosoma brucei brucei. Put plainly: Potency index, ratio of IC50 for QN to IC50 for test compound against Trypanosoma brucei brucei Lister 427 bloodstream forms by microtiter plate based assay. The format is functional.
A short description of data set [3]: Cytotoxicity against human WI38 cells by MTT assay. The format is cell-based, WI-38. Particulars: Homo sapiens, WI-38; read-out: IC50.
Data set [4] has as its system Trypanosoma brucei brucei. The experiment in a line: Antitrypanosomal activity against Trypanosoma brucei brucei Lister 427 bloodstream forms by microtiter plate based assay. The format is functional, organism-based.
Data set [5] deals with Plasmodium falciparum. The experiment in a line: Potency index, ratio of IC50 for QN to IC50 for test compound against Plasmodium falciparum 3D7 by parasite lactate dehydrogenase assay. The class given is functional.
The nature of a further data set: in vitro. Particulars: human, WI38 cells.
Data set [6] can be described thus: Selectivity index, ratio of IC50 against human WI38 cells to IC50 for Plasmodium falciparum 3D7. The format is toxicity, cell-based, WI-38. Particulars: read-out: Ratio IC50.
Data set [7] has as its system Trypanosoma brucei brucei. The experiment in a line: Potency index, ratio of IC50 for QND to IC50 for test compound against Trypanosoma brucei brucei Lister 427 bloodstream forms by microtiter plate based assay. The class given is functional.
For data set [8], the system named is Plasmodium falciparum. The experiment in a line: Potency index, ratio of IC50 for QND to IC50 for test compound against Plasmodium falciparum 3D7 by parasite lactate dehydrogenase assay. The class given is functional.
The test system of data set [9] is Plasmodium falciparum. Put plainly: Potency index, ratio of IC50 for CN to IC50 for test compound against Plasmodium falciparum 3D7 by parasite lactate dehydrogenase assay. The class given is functional.
In data set [10] the test system is Trypanosoma brucei brucei. The experiment in a line: Potency index, ratio of IC50 for CN to IC50 for test compound against Trypanosoma brucei brucei Lister 427 bloodstream forms by microtiter plate based assay. The class given is functional.

Description for in vitro: Selectivity index, ratio of IC50 against human WI38 cells to IC50 for Trypanosoma brucei brucei Lister 427 bloodstream forms

Consider `C=C[C@H]1CN2CC[C@H]1C[C@H]2[C@H](O)c1cc(CC[C@@H](C)[C@H]2CC[C@H]3[C@@H]4C[C@H](OC(C)=O)[C@@H]5C[C@H](OC(C)=O)CC[C@]5(C)[C@H]4CC[C@]23C)nc2ccc(OC)cc12`, for which the IC50 was 460 nM with Plasmodium falciparum [1], 5860 nM in data set [3] and 1490 nM in data set [4]. Moreover, the entries for the “Ratio IC50” value (in data set [2]; in the data set on Plasmodium falciparum [5]) were 14.3 and 1.4, respectively. Moreover, the selectivity ratio worked out at 3.9 in the data set “in vitro” and 13 in [6].
Consider `C=C[C@H]1CN2CC[C@H]1C[C@H]2[C@H](O)c1cc(CC[C@@H](C)[C@H]2CC[C@H]3[C@@H]4[C@H](OC(C)=O)[C@H](OC(C)=O)[C@@H]5C[C@H](OC(C)=O)CC[C@]5(C)[C@H]4CC[C@]23C)nc2ccc(OC)cc12`, for which the IC50 in the data set on Plasmodium falciparum [1] is 56 nM; in [3], 3760 nM; in [4], 450 nM. Moreover, the “Ratio IC50” value amounted to 46.8 in data set [2] and 11.3 in the data set with Plasmodium falciparum [5]. Further, the figures for the selectivity ratio (in the data set “in vitro”; in [6]) were 8.3 and 67.2, respectively.
For the molecule `C=C[C@H]1CN2CC[C@H]1C[C@H]2[C@H](O)c1cc(CC[C@@H](C)[C@H]2CC[C@H]3[C@@H]4CC[C@@H]5C[C@H](OC(C)=O)CC[C@]5(C)[C@H]4C[C@H](OC(C)=O)[C@]23C)nc2ccc(OC)cc12`, the IC50 in the data set with Plasmodium falciparum [1] stood at 197 nM; in data set [3], 4410 nM; in data set [4], 1470 nM. Further, the “Ratio IC50” value in data set [2] is 14.4; with Plasmodium falciparum [5] it was 3.2. Further, the results for the selectivity ratio (in the data set “in vitro”; in [6]) were 3 and 22, respectively.
As to `C=C[C@H]1CN2CC[C@H]1C[C@H]2[C@H](O)c1cc(CC[C@@H](C)[C@H]2CC[C@H]3[C@@H]4[C@H](OC(C)=O)C[C@@H]5C[C@H](OC(C)=O)CC[C@]5(C)[C@H]4C[C@H](OC(C)=O)[C@]23C)nc2ccc(OC)cc12`, the figures for the IC50 (in the data set on Plasmodium falciparum [1]; in [3]; in data set [4]) were 43.5 nM, 4470 nM and 480 nM, respectively. Further, the “Ratio IC50” value in data set [2] was determined as 44.1; in the data set with Plasmodium falciparum [5], 14.6. Also, the results for the selectivity ratio (in the data set “in vitro”; in data set [6]) were 9.3 and 103, respectively.
On to `C=C[C@H]1CN2CC[C@H]1C[C@H]2[C@H](O)c1cc(CC[C@@H](C)[C@H]2CC[C@H]3[C@@H]4C[C@H](O)[C@@H]5C[C@H](O)CC[C@]5(C)[C@H]4CC[C@]23C)nc2ccc(OC)cc12`, for which the IC50 was 224 nM in the data set on Plasmodium falciparum [1], 4600 nM in [3] and 650 nM in data set [4]. The “Ratio IC50” value in [2] is given as 32.4; in the data set on Plasmodium falciparum [5] it was 2.8. The selectivity ratio in the data set “in vitro” stood at 7; in data set [6], 21.
Consider `C=C[C@H]1CN2CC[C@H]1C[C@@H]2[C@@H](O)c1cc(CC[C@@H](C)[C@H]2CC[C@H]3[C@@H]4C[C@H](OC(C)=O)[C@@H]5C[C@H](OC(C)=O)CC[C@]5(C)[C@H]4CC[C@]23C)nc2ccc(OC)cc12`, for which the “Ratio IC50” value in data set [7] stood at 17.7; with Plasmodium falciparum [8], 1.3. In addition, the figures for the IC50 (with Plasmodium falciparum [1]; in [3]; in [4]) were 155 nM, 4490 nM and 1470 nM, respectively. Also, the results for the selectivity ratio (in the data set “in vitro”; in [6]) were 3.1 and 29, respectively.
In the case of `C=C[C@H]1CN2CC[C@H]1C[C@@H]2[C@@H](O)c1cc(CC[C@@H](C)[C@H]2CC[C@H]3[C@@H]4[C@H](OC(C)=O)[C@H](OC(C)=O)[C@@H]5C[C@H](OC(C)=O)CC[C@]5(C)[C@H]4CC[C@]23C)nc2ccc(OC)cc12`, the figures for the “Ratio IC50” value (in data set [7]; with Plasmodium falciparum [8]) were 46.2 and 2.7, respectively. Moreover, the half-inhibitory concentration (IC50) in the data set with Plasmodium falciparum [1] amounted to 73.2 nM; in data set [3], 3290 nM; in data set [4], 560 nM. Besides, the selectivity ratio in the data set “in vitro” was 5.8; in data set [6], 45.
For the molecule `C=C[C@H]1CN2CC[C@H]1C[C@@H]2[C@@H](O)c1cc(CC[C@@H](C)[C@H]2CC[C@H]3[C@@H]4CC[C@@H]5C[C@H](OC(C)=O)CC[C@]5(C)[C@H]4C[C@H](OC(C)=O)[C@]23C)nc2ccc(OC)cc12`, the “Ratio IC50” value in data set [7] was 37.5; in the data set on Plasmodium falciparum [8], 1. The values for the half-maximal inhibitory concentration (IC50) (in the data set with Plasmodium falciparum [1]; in [3]; in data set [4]) were 195 nM, 5330 nM and 690 nM, respectively. Further, the selectivity ratio in the data set “in vitro” amounted to 7.7; in data set [6] it was 27.
With `C=C[C@H]1CN2CC[C@H]1C[C@@H]2[C@@H](O)c1cc(CC[C@@H](C)[C@H]2CC[C@H]3[C@@H]4[C@H](OC(C)=O)C[C@@H]5C[C@H](OC(C)=O)CC[C@]5(C)[C@H]4C[C@H](OC(C)=O)[C@]23C)nc2ccc(OC)cc12`, the results for the “Ratio IC50” value (in [7]; with Plasmodium falciparum [8]) were 48.8 and 2.3, respectively. Besides, the figures for the IC50 (in the data set on Plasmodium falciparum [1]; in data set [3]; in data set [4]) were 83.8 nM, 4660 nM and 530 nM, respectively. The selectivity ratio was found to be 8.7 in the data set “in vitro” and 56 in data set [6].
For the molecule `C=C[C@H]1CN2CC[C@H]1C[C@@H]2[C@@H](O)c1cc(CC[C@@H](C)[C@H]2CC[C@H]3[C@@H]4C[C@H](O)[C@@H]5C[C@H](O)CC[C@]5(C)[C@H]4CC[C@]23C)nc2ccc(OC)cc12`, the “Ratio IC50” value was 29.2 in data set [7] and 1.6 in the data set with Plasmodium falciparum [8]. Further, the IC50 with Plasmodium falciparum [1] amounted to 124 nM; in data set [3], 2200 nM; in [4], 890 nM. Also, the selectivity ratio is 2.5 in the data set “in vitro” and 18 in data set [6].
With `C=C[C@H]1CN2CC[C@H]1C[C@@H]2[C@@H](O)c1cc(CC[C@@H](C)[C@H]2CC[C@H]3[C@@H]4[C@H](O)[C@H](O)[C@@H]5C[C@H](O)CC[C@]5(C)[C@H]4CC[C@]23C)nc2ccc(OC)cc12`, the “Ratio IC50” value in data set [7] worked out at 33.9; in the data set on Plasmodium falciparum [8], 1.1. Also, the results for the IC50 (in the data set with Plasmodium falciparum [1]; in data set [3]; in [4]) were 170 nM, 4750 nM and 770 nM, respectively. Moreover, the selectivity ratio in “in vitro” was 6.2; in data set [6], 27.9.
As for `C=C[C@H]1CN2CC[C@H]1C[C@@H]2[C@@H](O)c1cc(CC[C@@H](C)[C@H]2CC[C@H]3[C@@H]4CC[C@@H]5C[C@H](O)CC[C@]5(C)[C@H]4C[C@H](O)[C@]23C)nc2ccc(OC)cc12`, the “Ratio IC50” value in data set [7] came out at 42.7; in the data set on Plasmodium falciparum [8], 0.7. For the same molecule, the figures for the IC50 (in the data set on Plasmodium falciparum [1]; in [3]; in [4]) were 281 nM, 4300 nM and 610 nM, respectively. Also, the figures for the selectivity ratio (in the data set “in vitro”; in data set [6]) were 7.1 and 15, respectively.
`C=C[C@H]1CN2CC[C@H]1C[C@@H]2[C@@H](O)c1cc(CC[C@@H](C)[C@H]2CC[C@H]3[C@@H]4[C@H](O)C[C@@H]5C[C@H](O)CC[C@]5(C)[C@H]4C[C@H](O)[C@]23C)nc2ccc(OC)cc12`: the “Ratio IC50” value came out at 21.6 in [7] and 0.3 in the data set with Plasmodium falciparum [8]. Moreover, the IC50 worked out at 700 nM in the data set on Plasmodium falciparum [1], 11800 nM in [3] and 1210 nM in data set [4]. Also, the selectivity ratio is 9.8 in “in vitro” and 17 in data set [6].
With `C=C[C@H]1CN2CC[C@H]1C[C@@H]2[C@@H](O)c1cc(CC[C@@H](C)[C@H]2CC[C@H]3[C@@H]4[C@H](O)[C@H](O)[C@@H]5C[C@H](O)CC[C@]5(C)[C@H]4CC[C@]23C)nc2ccccc12`, the 50% inhibitory concentration (IC50) worked out at 183 nM in the data set on Plasmodium falciparum [1], 5680 nM in data set [3] and 1810 nM in [4]. Also, the “Ratio IC50” value was 1.6 in the data set on Plasmodium falciparum [9] and 37.6 in [10]. The selectivity ratio in the data set “in vitro” was 3.1; in data set [6] it was 31.
For `C=C[C@H]1CN2CC[C@H]1C[C@@H]2[C@@H](O)c1cc(CC[C@@H](C)[C@H]2CC[C@H]3[C@@H]4CC[C@@H]5C[C@H](O)CC[C@]5(C)[C@H]4C[C@H](O)[C@]23C)nc2ccccc12`, the IC50 with Plasmodium falciparum [1] came out at 134 nM; in [3], 2980 nM; in [4], 600 nM. Besides, the “Ratio IC50” value in the data set with Plasmodium falciparum [9] stood at 2.2; in data set [10], 113.1. Besides, the results for the selectivity ratio (in the data set “in vitro”; in data set [6]) were 5 and 22, respectively.
In the case of `C=C[C@H]1CN2CC[C@H]1C[C@@H]2[C@@H](O)c1cc(CC[C@@H](C)[C@H]2CC[C@H]3[C@@H]4[C@H](O)C[C@@H]5C[C@H](O)CC[C@]5(C)[C@H]4C[C@H](O)[C@]23C)nc2ccccc12`, the IC50 came out at 592 nM in the data set with Plasmodium falciparum [1], 5680 nM in data set [3] and 1100 nM in [4]. Also, the entries for the “Ratio IC50” value (with Plasmodium falciparum [9]; in data set [10]) were 0.5 and 61.8, respectively. The selectivity ratio amounted to 5.2 in the data set “in vitro” and 10 in data set [6].

In general, IC50 refers to the concentration that inhibits the measured activity by half.

These data come from ChEMBL document CHEMBL3588788, “Structure-activity relationship of hybrids of Cinchona alkaloids and bile acids with in vitro antiplasmodial and antitrypanosomal activities” (Eur J Med Chem, 2015).
